Values joined by “and” are separate entries in the source; they are usually repeats but may differ in a detail not shown here. Equal entries are not always repeated. Peptide text beside a SMILES is read from it.
B1: αCOPI-WD40 domain (residues 1-327) from Schizosaccharomyces pombe (domain or fragment)
chain: MEMLTKFESRSSRAKGVAFHPTQPWILTSLHNGRIQLWDYRMGTLLDRFDGHDGPVRGIAFHPTQPLFVSGGDDYKVNVWNYKSRKLLFSLCGHMDYVRVCTFHHEYPWILSCSDDQTIRIWNWQSRNCIAILTGHSHYVMCAAFHPSEDLIVSASLDQTVRVWDISGLRMKNAAPVSMSKEDQKAQAHNSKSNDKKGSTDAIVKFVLEGHDRGVNWCAFHPTLPLILSAGDDRLVKLWRMTASKAWEVDTCRGHFNNVSCCLFHPHQELILSASEDKTIRVWDLNRRTAVQTFRRDNDRFWFITVHPKLNLFAAAHDSGVMVFKLE

Experiments:
[1] = molecular target: αCOPI-WD40 domain (residues 1-327) (Schizosaccharomyces pombe, UniProt Q96WV5, F197K/I192K/L181K/L185K/L196K); experiment: biochemical; type: binding
[2] = molecular target: T1, sarbecovirus spike hepta-peptide, wild type (1267Gly-Val-Lys-Leu-His-Tyr-Thr1273) (SARS-CoV-2); experiment: BLI; details: both partners purified
T1 peptide: GVKLHYT

Molecule | Kd ([1]; Equilibrium KD) | Kd ([1]; Kinetic KD) | koff ([1]; pH 6.5) | kon ([1]; pH 6.5) | further results
CC(C)C[C@H](NC(=O)[C@H](CCCCN)NC(=O)[C@@H](NC(=O)CN)C(C)C)C(=O)N[C@@H](Cc1c[nH]cn1)C(=O)N[C@@H](C)C(=O)N[C@H](C(=O)O)[C@@H](C)O [GVKLHAT] (H-GVKLHAT-OH) | 3770 ± 340 nM | 2320 ± 70 nM | 0.28 ± 0.003 s⁻¹ | 120.87 ± 3.39 10^3/Ms | 
KEVYLHG |  |  |  |  | Binding to αCOPI-WD40 (in words) ([1]; pH 6.5): weak binding
CC(C)C[C@H](NC(=O)[C@H](CCCCN)NC(=O)[C@@H](NC(=O)CN)C(C)C)C(=O)N[C@@H](Cc1c[nH]cn1)C(=O)N[C@@H](Cc1ccc(O)cc1)C(=O)N[C@H](C(=O)O)[C@@H](C)O [GVKLHYT] (H-GVKLHYT-OH) | 4170 nM and 1400 nM | 2750 nM and 950 nM | 0.145 ± 0.001 s⁻¹ | 152.13 ± 3.45 10^3/Ms | koff ([1]; pH 7.5): 0.25 ± 0.003 s⁻¹; kon ([1]; pH 7.5): 89.96 ± 2.72 10^3/Ms
GVALAYT |  |  |  |  | Binding to αCOPI-WD40 (in words) ([1]; pH 6.5): does not demonstrate any substantial binding
GVKLAYT |  |  |  |  | Binding to αCOPI-WD40 (in words) ([1]; pH 6.5): abolished binding
GVALHYT |  |  |  |  | Binding to αCOPI-WD40 (in words) ([1]; pH 6.5): abolished binding
CC(C)C[C@H](NC(=O)[C@H](CCCCN)NC(=O)[C@@H](NC(=O)CN)C(C)C)C(=O)N[C@@H](Cc1c[nH]cn1)C(=O)N[C@@H](Cc1ccc(O)cc1)C(=O)N[C@@H](C)C(=O)O [GVKLHYA] (H-GVKLHYA-OH) | 1130 ± 50 nM | 1140 ± 20 nM | 0.076 ± 0.001 s⁻¹ | 66.67 ± 0.80 10^3/Ms | 
CC(C)C[C@H](NC(=O)[C@H](CCCCN)NC(=O)[C@@H](NC(=O)CN)C(C)C)C(=O)N[C@@H](CCCCN)C(=O)N[C@@H](Cc1ccc(O)cc1)C(=O)N[C@H](C(=O)O)[C@@H](C)O [GVKLKYT] (H-GVKLKYT-OH) |  | 2710 nM |  |  | koff ([1]; pH 7.5): 0.184 s⁻¹; kon ([1]; pH 7.5): 67.3 ± 1.45 10^3/Ms
VLKTYHG |  |  |  |  | Binding to αCOPI-WD40 (in words) ([1]; pH 7.5): no detectable interaction
CC(C)C[C@H](NC(=O)[C@H](CCCCN)NC(=O)[C@@H](NC(=O)CN)C(C)C)C(=O)N[C@@H](Cc1c[nH]cn1)C(=O)N[C@@H](Cc1ccc(O)cc1)C(=O)N[C@@H](CCC(N)=O)C(=O)O [GVKLHYQ] (H-GVKLHYQ-OH) | 780 ± 40 nM | 1150 ± 10 nM | 0.066 ± 0.001 s⁻¹ | 60.05 ± 0.75 10^3/Ms | 
CC(C)C[C@H](NC(=O)[C@H](CCCCN)NC(=O)[C@@H](NC(=O)CN)C(C)C)C(=O)N[C@@H](Cc1c[nH]cn1)C(=O)N[C@@H](Cc1ccc(O)cc1)C(=O)N[C@@H](CCCNC(=N)N)C(=O)O [GVKLHYR] (H-GVKLHYR-OH) | 1730 ± 240 nM | 1290 ± 40 nM | 0.177 ± 0.001 s⁻¹ |  | 
CC(C)C[C@H](NC(=O)[C@H](CCCCN)NC(=O)[C@@H](NC(=O)CN)C(C)C)C(=O)N[C@@H](Cc1c[nH]cn1)C(=O)N[C@@H](Cc1ccc(O)cc1)C(=O)N[C@@H](CCC(=O)O)C(=O)O [GVKLHYE] (H-GVKLHYE-OH) | 310 ± 10 nM | 380 ± 10 nM | 0.024 ± 0.0003 s⁻¹ | 58.96 ± 0.54 10^3/Ms | 
CC(C)C[C@H](NC(=O)[C@H](CCCCN)NC(=O)[C@@H](NC(=O)CN)C(C)C)C(=O)N[C@@H](Cc1c[nH]cn1)C(=O)N[C@@H](Cc1ccc(O)cc1)C(=O)N[C@H](C(=O)O)C(C)C [GVKLHYV] (H-GVKLHYV-OH) | 3200 ± 40 nM | 2060 ± 50 nM | 0.212 ± 0.002 s⁻¹ | 102.67 ± 2.61 10^3/Ms | 
B1 |  |  |  |  | koff [2]: 0.145 s⁻¹ and 0.25 s⁻¹; kon [2]: 152000 M⁻¹ s⁻¹ and 90000 M⁻¹ s⁻¹
